Assay results published in patent US10736933B2, “Peptide-induced NK cell activation” (priority 2015, dated 2020).

Tested on: NKL cell line transfected with KIR2DS2
Assay: Vav1 phosphorylation (pVav1 Western blot) in NKL cells transfected with KIR2DS2
Format: cell-based
Conditions: L721.174 (HLA-Cw*0102) cells loaded with peptide; KIR2DS2-transfected NKL, 5 minutes
Procedure: A. L721.174 cells were incubated with indicated peptides. The cells were then incubated with the NK cell line transfected with KIR2DS2. The cells were lysed and the KIR2DS2 was then immunoprecipitated from the mixture using the GL183 antibody coupled to protein-G beads. The immune precipitate was analysed by Western blotting using a phosphotyrosine antibody. The membrane was then stripped and reprobed with an antibody to DAP12 the molecule that transduces a positive signal from KIR2DS2. Shown are the regions on the blots at the level of DAP12 (12-15 kDa). B. L721.174 cells were incubated with indicated peptides. The cells were then incubated with the NK cell line transfected with KIR2DS2 or transfected with KIR2DL2. The cells were lysed in 1% NP-40 and then analysed by Western blotting using antibodies to pVav1 and then following stripping of the membrane to Vav1. Shown are Western blots around the 98 kDa region, and below them the corresponding densitometries for 3 independent experiments.
FIG. 7 1×10^6 L721.221-HLA-C*0304-ICP47 cells were incubated overnight at 26° C. with indicated peptides at a concentration of […]. The cells were then incubated with the NKL cell line transfected with KIR2DS2 or transfected with KIR2DL2 for 5 minutes. The cells were lysed in 1% NP-40 and then analysed by Western blotting using antibodies to pVav1 and then following stripping of the membrane to Vav1. Shown are Western blots around the 98 kDa region, and below them the corresponding densitometries for 2 independent experiments.
FIG. 14—The Dengue virus peptide IVDLMCHATF (SEQ ID NO: 1) activates KIR2DS2 positive NK cells. 174 cells were incubated with the IVDLMCHATF (SEQ ID NO: 1) and then KIR2DS2-positive transfected NKL cells or KIR2DL2-positve transfected NKL cells. Activation of NK cells was assessed by western blotting for phosphorylated Vav1, and compared to total Vav1.
With reference to FIG. 6A, 1×10^6 L721.174 cells were incubated overnight at 26° C. with indicated peptides at a concentration of […]. The cells were then incubated with the NK cell line transfected with KIR2DS2 for 5 minutes. The cells were lysed in 1% digitonin buffer and the KIR2DS2 was then immunoprecipitated from the mixture using the GL183 antibody coupled to protein-G beads. The immune precipitate was analysed by Western blotting using a phosphotyrosine antibody. […] The cells were lysed in 1% NP-40 and then analysed by Western blotting using antibodies to pVav1 and then following stripping of the membrane to Vav1. […]
With reference to FIG. 7, 1×10^6 HLA-C*0304:ICP47:721.221 cells were incubated overnight at 26° C. with indicated peptides at a concentration of […]. […] The cells were lysed in 1% NP-40 and then analysed by Western blotting using antibodies to pVav1 and then following stripping of the membrane to Vav1. […]

Sequence	activation of NK cells (phosphorylated Vav1 compared to total Vav1)
IVDLMCHATF [Dengue virus peptide]	activated KIR2DS2
LNPSVAATL [peptide recognized by KIR2DS2-positive NK cells]	activates NK cells expressing KIR2DS2
